Reference: publication PMC12677843, “Multidisciplinary Preclinical Investigations on Ferrocenyl, Ruthenocenyl, and Benzyl Derivatives of Niridazole as New Drug Candidates against Schistosomiasis” (Chemmedchem, 2025)
pEC50: −log10 of the molar value. Entries after “also recorded” stand apart in the source; their conditions may differ.

Columns and labels:
[1] = test system: S. mansoni newly transformed schistosomula (NTS); experiment: In vitro evaluation on newly transformed schistosomula (NTS); assay type: cell-based, Schistosoma mansoni; details: for pEC50: 72 h incubation, 37 °C, 5% CO2
Protocol: 2. Experimental section for biological experiments
Stock solutions of the test compounds
Stock solution of a concentration of 10 mM in pure DMSO (Sigma-Aldrich, Switzerland) were prepared of the 12 compounds, these stock solutions were used for all in vitro evaluations from activity tests in S. mansoni to the cytotoxic determinations in HUH7 hepatocyte-derived carcinoma cells, and in SH-SY5Y neuroblastoma cells.
The solutions were thoroughly vortexed and sonicated to enable a good dissolution of the compounds and homogenous stock solutions.
2.1 In vitro evaluations in S. mansoni
In vitro evaluation on newly transformed schistosomula (NTS)
To obtain newly transformed schistosomula (NTS) the lifecycle of S. mansoni (strain originates from West Africa, Liberia) is maintained at the Swiss Tropical and Public Health Institute (Swiss TPH). As previously described, cercariae are collected from infected Biomphalaria glabrata snails and then mechanically transformed into NTS. 8 After HBSS (Gibco, Waltham MA, USA) washing to get rid of the detached tails, the NTS were kept overnight (min. 12 h, max. 24 h) in culture medium at 37 °C and 5 % CO2 to complete their transformation process, before the drug sensitivity assay was started. The drug assays were performed in the same culture medium consisting of medium M199 (Gibco, Waltham MA, USA) supplemented with 5 % v/v inactivated fetal calf serum (iFCS; Bioconcept AG, Allschwil, Switzerland), 1% antibiotics mixture developed by Mäser et al., 9 and 1 % penicillin 10,000 U/mL, and streptomycin 10 mg/mL solution (Sigma-Aldrich, Buchs, Switzerland). The assay was performed in a 96-well plate, with 30−40 NTS per well in a final volume of 250 μL. NTS incubated in culture medium containing 0.5 % DMSO but no drug served as negative controls.
Microscopic evaluation was performed after 24, 48 and 72 h of incubation of the parasites at 37 °C and 5 % CO 2. Their overall viability was scored from 0 (death) to 3 (full viability) by a phenotypic screening method based on their motility, morphology, […]
and granularity. […]

[2] = test system: SH-SY5Y cells; experiment: SYTOX cell viability assay, SH-SY5Y; assay type: cell-based, human; details: 20 µM, 24 h, serum-free charcoal-treated medium, vs DMSO control (0.2%), mean
Protocol: The SYTOX cell viability assay was performed in SHSY5Y cells. Cells were treated with either compound (20 µM) or DMSO control (0.2%) for 24 h at 37 °C and 5% CO2 in serum‐free charcoal‐treated medium. Results were normalized to the DMSO control. Mean ± SD was calculated from three independent experiments, each performed in quadruplicate. […]
serum-free media containing either treatment at a concentration of 20 µM or DMSO (ITW Reagents Cat A3672) control (0.2 %).
Following 24 h of incubation, 12.5 μL of an XTT/phenazine methosulfate (PMS) (XTT Sigma Aldrich cat X4626, PMS Serva CAT: 3203) 0.02solution (1 mg/mL XTT and 7.5 μg/mL PMS) was added to each well. Absorbance was measured using a microplate reader (Biotek Synergy HT) at 450 nm (signal) and 650 nm (background), 2 h after the addition of the XTT/PMS solution. Individual backgrounds were subtracted and all results were normalized to DMSO control. Mean ± SD was determined from three independent experiments, each performed in quintuplicate.
SYTOX cell viability assay
The cytotoxic potential was additionally evaluated using the staining-based SYTOX viability assay. […] Data was acquired on the BioTeck Cytation5 microscope and evaluated by the manufacturer’s software (Gen5 Image Prime Version 3.12). […] Mean ± SD was determined from three independent experiments, each performed in quadruplicate. […]

[3] = test system: adult S. mansoni; experiment: In vitro drug sensitivity assay on adult S. mansoni (microscopic viability scoring); assay type: cell-based, Schistosoma mansoni; details: for drug effect at 50 µM on adult S. mansoni: 72 h incubation, normalized to DMSO control, active if ≥60%; for pEC50: 72 h drug exposure, 37 °C, 5% CO2, read-out: EC50 on adult S. mansoni, 72 h
Protocol: Figure 3 In vitro activity at 50 µM of the 12 compounds on adult S. mansoni. Adult schistosomes were incubated in culture media for 72 h at 37 °C and 5% CO2 with either compound (50 µM) or a DMSO (0.5%) control. The viability of the worms was microscopically evaluated and scored (0—3, in 0.5 steps) every 24 h. Results are from two independent experiments, each performed in duplicate. Drug activities were normalized to the DMSO controls. Data represent mean ± SD in percentage of DMSO control. […]
In vitro evaluation on adult S. mansoni
After a week for acclimatization to the new environment with controlled conditions (temperature: 22 °C ± 2 °C, humidity: 50 % ± 10 %, 12:12 h light/dark photocycle), four-week-old female NMRI mice (Charles River, Sulzfeld, Germany) were subcutaneously infected with approximately 100 cercariae to establish the S. mansoni infection. In the S. mansoni infected mice the worms were allowed to develop for 7 weeks into the adult stage, before they were extracted from the mesenteric veins of the euthanized mice. The adult worms were placed into RPMI 1640 (Gibco, Waltham MA, USA) medium supplemented with 1 % penicillin/streptomycin mixture and 5 % iFCS at 37 °C and 5 % CO 2. The drug sensitivity assay was set up in a 24-well plate with two wells containing each two pairs of S. mansoni worms per compound and concentration.
The final volume per well was 2 mL, containing the culture medium and the corresponding amount of drug dissolved in DMSO. The maximum concentration tested was 50 µM, corresponding to 0.5 % DMSO, to which all the other wells were adapted […]
to, so that all test concentrations contained always the same amount of DMSO.
Additionally, 2 wells with negative controls containing only DMSO and the culture medium were included. After an incubation period of 72 h at 37 °C and 5 % CO 2, the worms were microscopically evaluated. The drug effect was determined 24, 48 and 72 h post-exposure based on the phenotype of the adult worms, using a viability scale ranging from three referring to viable, motile worms with no change in their tegument to zero standing for the death of the worms.
All described in vitro studies with mice involved, were conducted at the Swiss Tropical and Public Health Institute, first in Basel, later in Allschwil, and had the approval by the corresponding veterinary authorities of the Canton Basel-Stadt (permit no. 2070)

[4] = test system: juvenile S. mansoni; experiment: In vitro drug sensitivity assay on juvenile S. mansoni; assay type: cell-based, Schistosoma mansoni; details: 72 h incubation, 37 °C, 5% CO2
Protocol: Juvenile worms were gained through cultivation of NTS as previously described. 10 In short, NTS were obtained as described above, then directly after the mechanical transformation process the newly transformed schistosomula were placed in a special culturing medium. The culture medium consists of Panserin 401, w: L-Glutamine, serum free all-round medium (Pan Biotech, Aidenbach, Germany) supplemented with 20 % human serum and 500 U/mL penicillin, […] streptomycin (LuBioScience, Switzerland). 96-well transparent polystyrene flat bottom plates were used for the in vitro growth procedure, with 40 to 60 NTS per well in 100 µL culture medium. The bordering wells of the plate were filled solely with medium to counteract evaporation and to keep the humidity as steady as possible. The plates were incubated for 21 days at 5 % CO2 and at 37 °C, with regular medium changes every 3 to 4 days. After the 21 days culturing period, the schistosomulae developed into juveniles. For the drug sensitivity assay, juvenile worms were incubated over 72 h (5 % CO 2 and 37 °C) with the test compound in the same medium, as used for the culturing process. In a 96-well plate, 250 µL medium containing the test compound and six juvenile worms, ideally of both sexes were placed in each well. All compounds were tested twice independently at 50, 10, 5 and 1 µM in duplicates. The viability of the worms was evaluated microscopically after 24, 48 and 72 h of continuous drug exposure using the same phenotypic screening method as described before. […]

[5] = Stability of A2 in DMSO-d6 with D2O (4:1) by 1H NMR; assay type: physicochemical; details: Figure S36; DMSO-d6 with D2O (4:1, v/v)
Protocol: Figure S31 DEPT spectrum of C2
1H NMR spectra for stability
Preparation of the control samples for 1H NMR analysis: Compounds B1, D1, A3 and
C2 were dissolved in DMSO- d6. Compound A2 was dissolved in DMSO- d6 with D2O
(4:1, v/v). NMR spectra were recorded in deuterated solvents on Bruker Avance-400
in the room temperature for 0, 6, 24, 30 and 48 hours or 0, 3, 6 and 24 hours. […]

Row | Structure (SMILES) | pEC50 [1] | drug effect at 50 µM on S. mansoni NTS ([1]; highest tested concentration 50 µM) | reduction of SH-SY5Y cell viability (SYTOX) [2] | drug effect at 50 µM on adult S. mansoni [3] | pEC50 [3] | pEC50 [4] | mean drug effect at 10 µM on adult S. mansoni, 24 h ([3]; 10 µM, 24 h, in percentage of DMSO control) | mean drug effect at 10 µM on adult S. mansoni, 48 h ([3]; 10 µM, 48 h, in percentage of DMSO control) | mean drug effect at 10 µM on adult S. mansoni, 72 h ([3]; 10 µM, 72 h, in percentage of DMSO control) | stability under warm and moist conditions [5]
1 | O=C(Nc1ncc([N+](=O)[O-])s1)[c-]1cccc1.[Fe+2].c1cc[cH-]c1 [Compound A1] | < 4.30 | No drug effect | did not alter SH‐SY5Y cell viability; also recorded: inactive | No drug effect | < 4.30 |  |  |  |  | 
2 | O=C([c-]1cccc1)N1CCN(c2ncc([N+](=O)[O-])s2)C1=O.[Fe+2].c1cc[cH-]c1 [Compound A2] | 5.70 |  |  | more active | 5.09 | 5.20 | 36.97% | 46.61% | 56.40% | stable
